The subject of assay [1] is TGF-β/Smad pathway in annulus fibrosus cells. As to the kind of experiment: Immunoprotein western-blotting of annulus fibrosus cells (activation of the TGF-β/Smad pathway). Format: cell-based. The protocol:
Activation of the TGF-β/Smad pathway in annulus fibrosus cells by bleomycin:
Method for immunoprotein western-blotting of annulus fibrosus cells:
Annulus fibrosus cells (provided by CAS Cell Bank) were cultured in a six-well plate to which high-sugar DMEM medium+10% fetal bovine serum was added, the plate was placed in a 5% CO2 incubator at 37° C., and 5, 10 μg/ml of bleomycin and/or the TGFβR1 inhibitor LY364947 was added when the cell confluence was 70%-80% to co-culture for 30 min or 24 h. Total cellular protein was extracted from cultured annulus fibrosus cells (Medical Center of Rush University) by using RIPA lysis buffer (Roche, Basel, Switzerland) containing phosphatase and protease inhibitors. Equal amounts (20-30 μg) of extracted proteins were obtained by using 10% or 12.5% SDSPAGE gel, and proteins were separated by electroblotting with 0.22 μm PVDF membrane (Merck Millipore). The PVDF membrane was blocked with 5% BSA-PBS for 1 h at room temperature and then incubated with primary antibody (diluted at a ratio of 1:1000 in 5% BSA-PBS) overnight (at least 16 h) at 4° C. Anti-SMAD2 antibody (Ser308, D4364; rabbit monoclonal antibody), anti-phosphorylated SMAD2 antibody (Ser465/467, 138D4; rabbit monoclonal antibody), anti-SMAD3 antibody (C67H9; rabbit monoclonal antibody), anti-phosphorylated SMAD3 antibody (Ser423/425, C25A9; rabbit monoclonal antibody), anti-SMAD2/3 antibody (D7G7; rabbit monoclonal antibody), anti-phospho SMAD2/3 antibody (Ser465/467; Ser423/425; rabbit monoclonal antibody), anti-SMAD4 antibody (D3M6U; rabbit monoclonal antibody), and […] antibody (D6A8; rabbit monoclonal antibody) were purchased from Cell Signaling Technology (Danvers, Massachusetts, USA). […] The membrane was extensively rinsed in TBST again and protein immunobands were detected by using the LI-COR Odyssey Fluorescence Imaging System (LICOR Biosciences, Lincoln, NE, USA). […]

Assay [2] deals with punctured intervertebral disc (spinal degeneration). In words: Digital X-ray and MRI imaging of punctured rat tail discs after disc local injection of bleomycin. As to conditions: 5 μl of 10 and 5 μg/ml bleomycin per disc, injected two weeks after puncture, four weeks recovery. It is filed as in vivo, Sprague-Dawley rats.
Assay [3] has the same test system. As to the kind of experiment: Safranin O-fast green staining, Sirius red staining and immunofluorescence of disc paraffin sections. It is filed as in vivo, Sprague-Dawley rats. As for the experimental part: Fixed disc tissue specimens (sham group, Puncture group, and Bleomycin group) were embedded in paraffin blocks, followed by tissue sectioning (with a thickness of 5 μm). For histological evaluation, paraffin sections were stained with saffron O-solid green and Sirius red according to standard laboratory protocols. For immunofluorescence detection, tissue sections were de-paraffined in graded xylene, rehydrated in graded alcohol solution, and then incubated in antigen retrieval buffer (Roche) at 37° C. for 30 min. After cooling to room temperature, the slides were immersed in PBS (pH 7.4) and washed 3 times for 5 min each. Autofluorescence quencher was added to the sections, and 5 min later, blocking buffer was added to block the sections for 30 min at room temperature. The sections were then incubated with primary antibodies overnight in a wet chamber at 4° C. Primary antibodies were diluted at a ratio of 1:100, and included anti-Col1a1, anti-FSP1, anti-TGFβ, and anti-TGFβR1 (all purchased from Cell Signaling Technology). The next day, sections were washed with PBS, conjugated to secondary antibody (anti-rabbit, 1:500; Cell Signaling Technology) through Alexa-fluor594, and then incubated for 50 min in the dark at room temperature. The sections were washed with PBS and then incubated with DAPI solution (Sigma Aldrich, St. Louis, MO, USA) for 10 minutes in the dark to stain the nucleus. The sections were subjected to a final PBS wash, air-dried, and then sealed with an anti-fluorescence quenching flake. Digital fluorescence images were taken by using a Leica DM4000 B epifluorescence microscope (Leica Microsystems).

Assay [4] shares this test system. In words: Atomic force analysis of punctured disc paraffin sections. The settings on record: Puncture+Bleomycin; FIG. 7 and 8. Format: in vivo, Sprague-Dawley rats. The protocol:
Atomic force analysis was performed by first extracting and dissecting the punctured vertebrae. Paraffin sections were made and then nanoindented (R<10 nm, nominal N/m, tips: Si/Tipless/Top, cantilevered Si/Al/Top; Park Systems) by using a Park NX20 (Park Systems, Korea) equipped with a microsphere colloidal tip. For undulating surfaces with large areas, a scan rate of 13 hz was used. Large scanning rates can reduce drift, but are generally only used to scan small planes. Indentation was performed by using a scanning Asyst air probe, where a z-piezo displacement rate was 10 μm/s, a maximum load was ˜120 nn, a curvature radius was 5 nm, and a force constant was 0.4 N/m.

Where [5] appears, read: 10 and 5 μg/ml of bleomycin, compared with the puncture group and the control group, FIG. 4.
Setting [6] is: Puncture+Bleomycin vs Puncture group, FIG. 3.

The text below walks through data of patent US20240115658A1, “Use of an intervertebral disc fibrosis-inducing substance in preparation of medication” (Shanghai Ninth People's Hospital, Shanghai JiaoTong …, priority 2020, published 2024).

Regarding bleomycin, the “p-smad2 and p-smad3 in annulus fibrosus cells” value in assay [1] (5, 10 μg/ml bleomycin, co-culture 30 min or 24 h, western blot, FIG. 1A and 1B) is “activated”. Besides, the “expression of end-protein products Col1a1 and FSP1” value in assay [1] (5, 10 μg/ml bleomycin, co-culture 30 min or 24 h, western blot, FIG. 1C) is on record as “increased”. Also, the “fibrogenic-associated proteins TGFβ, FSP1, and Col1a1 (immunoprotein western-blot)” value in assay [1] (legend of FIG. 1C) was “highly expressed”. Further, in assay [2], the “signal of the intervertebral disc (MRI)” value is “difficult to be preserved”; the “stability of the disc (X-ray and MRI)” value is “not significantly affected”. In assay [2] (vs Puncture group), the “intervertebral space height (X-ray and MRI)” value is reported as “effectively maintained”. Further, in assay [3] (setting [5]), the “staining percentage of annulus fibrous (green)” value is on record as “significantly increased”, the “staining percentage of type I collagen (yellow)” value was “significantly increased” and the “staining percentage of type III collagen (green)” value is reported as “significantly increased”. For the same substance, the “type I and type III collagens secreted (immunofluorescence)” value in assay [3] (Puncture+, Bleomycin 10 or 5, FIGS. 5 and 6) is “a large amount of type I and type III collagens was secreted”. In addition, in assay [3] (setting [6]), the “annulus fibrosus repair (staining)” value is “completely repaired and migrated inward”; the “intervertebral space height (Safranin O-fast green and Sirius red staining)” value was “significantly higher”; the “type I collagen secreted to fill the intervertebral space (staining)” value was “large amounts of type I collagen were secreted”. Also, in assay [4], the “fibrosis (atomic force analysis)” value is reported as “faster fibrosis”, the “intervertebral space height (atomic force analysis)” value is “preservation of the intervertebral space height” and the “resistance of the disc to deformation (atomic force analysis)” value is “increase in the resistance of the disc to deformation”.
